Like-named read-outs stand apart in the source and are kept apart here.
Tested on: Huh-7 cells containing the self-replicating, subgenomic HCV replicon
Experiment: HCV replicon assay (luciferase reporter, 72 h)
Assay type: cell-based
Details: read-out: HCV Replicon Activity (EC50)
Description: Huh-7 cells containing the self-replicating, subgenomic HCV replicon with a stable luciferase (LUC) reporter were cultured in Dulbecco's modified Eagle's medium (DMEM) containing 2 mM L-glutamine and supplemented with 10% heat-inactivated fetal bovine serum (FBS), 1% penicillin-streptomyocin, 1% nonessential amino acids, and 0.5 mg/ml G418.
On the first day, 5,000 HCV replicon cells were plated per well in a 96-well plate. On the following day, test compounds were solubilized in 100% DMSO to 100× the desired final testing concentration. Each compound was then serially diluted (1:3) up to 9 different concentrations. Compounds in 100% DMSO are reduced to 10% DMSO by diluting 1:10 in cell culture media. The compounds were diluted to 10% DMSO with cell culture media, which were used to dose the HCV replicon cells in 96-well format. The final DMSO concentration was 1%. The HCV replicon cells were incubated at 37° C. for 72 hours. At 72 hours, cells were processed when the cells are still subconfluent. Compounds that reduce the LUC signal are determined by Bright-Glo Luciferase Assay (Promega, Madison, Wis.). % Inhibition was determined for each compound concentration in relation to the control cells (untreated HCV replicon) to calculate the EC50.

[1] = Hepatitis C virus, Table 9, Huh-7 HCV replicon cells, luciferase, 72 hours

SMILES: C[C@H](NP(=O)(Oc1ccc(F)cc1)O[C@@H](C)[C@H]1O[C@@H](n2cnc3c(N)ncnc32)[C@H](O)[C@@H]1O)C(=O)OC1CCCCC1 (stereo in doubt) [A31]
- EC50 (Hepatitis C virus, Huh-7, 72 h): < 1 µM

SMILES: CC(=O)O[C@@H](C)[C@H]1O[C@@H](n2ccc(N)nc2=O)C(F)(F)[C@@H]1OC(C)=O
- EC50 [1]: < 5 µM

SMILES: CCOC(=O)[C@H](C)NP(=O)(Oc1cccc2ccccc12)O[C@@H](C)[C@H]1O[C@@H](n2cnc3c(N)ncnc32)[C@H](O)[C@@H]1O (stereo partly drawn) [A19, 5′(S)—C-methyladenosine 5′-[1-naphthyl(ethoxy-L-alaninyl)]phosphate]
- EC50 (Hepatitis C virus, Huh-7, 72 h): < 1 µM

SMILES: CCC[C@H](NP(=O)(Oc1ccccc1)O[C@@H](C)[C@H]1O[C@@H](n2cnc3c(N)ncnc32)[C@H](O)[C@@H]1O)C(=O)OC1CCCCC1 (stereo partly drawn) [A38]
- EC50 (Hepatitis C virus, Huh-7, 72 h): < 1 µM

SMILES: CC[C@H](NP(=O)(Oc1ccccc1)O[C@@H](C)[C@H]1O[C@@H](n2cnc3c(N)ncnc32)[C@H](O)[C@@H]1O)C(=O)OC1CCCCC1 (stereo partly drawn) [A34]
- EC50 (Hepatitis C virus, Huh-7, 72 h): < 1 µM

SMILES: C[C@H](O)[C@H]1O[C@@H](n2ccc(N)nc2=O)[C@@H](O)[C@@H]1O
- EC50 [1]: 30 to 200 µM

SMILES: C[C@H](NP(=O)(Oc1ccc(F)c(Cl)c1)O[C@@H](C)[C@H]1O[C@@H](n2cnc3c(N)ncnc32)[C@H](O)[C@@H]1O)C(=O)OC1CCCCC1 (stereo partly drawn) [A29]
- EC50 (Hepatitis C virus, Huh-7, 72 h): < 1 µM

SMILES: C[C@H](N[P@](=O)(Oc1ccccc1)O[C@@H](C)[C@H]1O[C@@H](n2cnc3c(N)ncnc32)[C@H](O)[C@@H]1O)C(=O)OC1CCCCC1 [A10b, 5′(S)—C-methyladenosine 5′(R)-[phenyl(cyclohexoxy-L-alaninyl)]phosphate]
- EC50 (Hepatitis C virus, Huh-7, 72 h): < 1 µM

SMILES: C[C@H](O)[C@H]1O[C@@H](n2ccc(N)nc2=O)[C@H](F)[C@@H]1O
- EC50 [1]: 5 to 30 µM

SMILES: C[C@H](NP(=O)(Oc1cccc2ccccc12)O[C@@H](C)[C@H]1O[C@@H](n2cnc3c(N)ncnc32)[C@H](O)[C@@H]1O)C(=O)OC1CCCCC1 (stereo partly drawn) [A1, 5′(S)—C-methyladenosine 5′-[1-naphthyl(cyclohexoxy-L-alaninyl)]phosphate]
- EC50 (Hepatitis C virus, Huh-7, 72 h): < 1 µM

SMILES: C[C@H](NP(=O)(Oc1ccccc1)O[C@@H](C)[C@H]1O[C@@H](n2cnc3c(N)ncnc32)[C@@H]2OC(=O)O[C@@H]21)C(=O)OC1CCCCC1 (stereo partly drawn) [A13, 2′,3′-O-carbonyl-5′(S)—C-methyladenosine 5′-[phenyl(cyclohexoxy-L-alaninyl)]phosphate]
- EC50 (Hepatitis C virus, Huh-7, 72 h): < 1 µM

SMILES: C[C@H](NP(=O)(Oc1cccc2ccccc12)O[C@@H](C)[C@H]1O[C@@H](n2cnc3c(N)ncnc32)[C@@H]2OC(=O)O[C@@H]21)C(=O)OCC(C)(C)C (stereo partly drawn) [A4, 2′,3′-O-carbonyl-5′(S)—C-methyladenosine 5′-[1-naphthyl(neopentoxy-L-alaninyl)]phosphate]
- EC50 (Hepatitis C virus, Huh-7, 72 h): < 1 µM

SMILES: CC(C)OC(=O)[C@H](C)NP(=O)(Oc1ccccc1)O[C@@H]([C@H]1O[C@@H](n2cnc3c(N)ncnc32)[C@H](O)[C@@H]1O)C(F)(F)F (stereo partly drawn) [A27, 5′(R)—C-trifluoromethyladenosine 5′-[phenyl(isopropoxy-L-alaninyl)]phosphate]
- EC50 (Hepatitis C virus, Huh-7, 72 h): < 30 µM

SMILES: C[C@H](NP(=O)(Oc1ccccc1)O[C@@H](C)[C@H]1O[C@@H](n2cnc3c(N)ncnc32)[C@H](O)[C@@H]1O)C(=O)OC1CCCCC1 (stereo partly drawn) [A10, 5′(S)—C-methyladenosine 5′-[phenyl(cyclohexoxy-L-alaninyl)]phosphate]
- EC50 (Hepatitis C virus, Huh-7, 72 h): < 1 µM

SMILES: COC(=O)C(C)NP(=O)(Oc1ccccc1)OC(C)[C@H]1O[C@@H](n2ccc(=O)[nH]c2=O)C(C)C1O (mixture of isomers) [D7]
- EC50 (Hepatitis C virus, Huh-7, 72 h): < 30 µM

SMILES: COc1ccc(OP(=O)(N[C@@H](C)C(=O)OC2CCCCC2)O[C@@H](C)[C@H]2O[C@@H](n3cnc4c(N)ncnc43)[C@H](O)[C@@H]2O)cc1 (stereo partly drawn) [A33]
- EC50 (Hepatitis C virus, Huh-7, 72 h): < 1 µM

SMILES: CSCC[C@H](NP(=O)(Oc1ccccc1)O[C@@H](C)[C@H]1O[C@@H](n2cnc3c(N)ncnc32)[C@H](O)[C@@H]1O)C(=O)OC1CCCCC1 (stereo partly drawn) [A41]
- EC50 (Hepatitis C virus, Huh-7, 72 h): < 1 µM

SMILES: CC(C)OC(=O)[C@H](C)NP(=O)(Oc1ccccc1)O[C@@H](C)[C@H]1O[C@@H](n2ccc(N)nc2=O)[C@H](O)[C@@H]1O (stereo partly drawn) [C8, 5′(S)—C-methylcytidine 5′-[phenyl(isopropoxy-L-alaninyl)]phosphate]
- EC50 (Hepatitis C virus, Huh-7, 72 h): < 100 µM

SMILES: CCC(=O)O[C@H]1[C@@H](OC(=O)CC)[C@H](n2cnc3c(N)ncnc32)O[C@@H]1[C@H](C)OP(=O)(N[C@@H](C)C(=O)OC(C)C)Oc1cccc2ccccc12 (stereo partly drawn) [A22, 2′,3′-O-dipropionyl-5′-(S)—C-methyladenosine 5′-[1-naphthyl(isopropoxy-L-alaninyl)]phosphate]
- EC50 (Hepatitis C virus, Huh-7, 72 h): < 1 µM

SMILES: CC(C)OC(=O)[C@H](C)NP(=O)(Oc1ccccc1)O[C@H]([C@H]1O[C@@H](n2cnc3c(N)ncnc32)[C@H](O)[C@@H]1O)C(F)(F)F (stereo partly drawn) [A26, 5′(S)—C-trifluoromethyladenosine 5′-[phenyl(isopropoxy-L-alaninyl)]phosphate]
- EC50 (Hepatitis C virus, Huh-7, 72 h): < 100 µM

SMILES: COC(=O)[C@H](C)NP(=O)(Oc1ccccc1)O[C@@H](C)[C@H]1O[C@@H](n2ccc(N)nc2=O)[C@H](O)[C@@H]1O (stereo partly drawn) [C6, 5′(S)—C-Methylcytidine 5′-[phenyl(methoxy-L-alaninyl)]phosphate]
- EC50 (Hepatitis C virus, Huh-7, 72 h): < 100 µM

SMILES: C[C@@H](O)[C@H]1O[C@@H](n2ccc(N)nc2=O)[C@@H](O)[C@@H]1O
- EC50 [1]: < 5 µM

SMILES: C[C@H](NP(=O)(Oc1ccccc1)O[C@@H](C)[C@H]1O[C@@H](n2cnc3c(N)ncnc32)[C@H](O)[C@@H]1O)C(=O)OCC(C)(C)C (stereo partly drawn) [A11, 5′(S)—C-methyladenosine 5′-[phenyl(neopentoxy-L-alaninyl)]phosphate]
- EC50 (Hepatitis C virus, Huh-7, 72 h): < 1 µM

SMILES: C[C@@H](O)[C@H]1O[C@@H](n2ccc(N)nc2=O)C(F)(F)[C@@H]1O
- EC50 [1]: < 5 µM

SMILES: CC(C)OC(=O)[C@H](C)NP(=O)(Oc1ccccc1)O[C@@H](C)[C@H]1O[C@@H](n2cnc3c(N)ncnc32)[C@H](O)[C@@H]1O (stereo partly drawn) [A8, 5′(S)—C-methyladenosine 5′-[phenyl(isopropoxy-L-alaninyl)]phosphate]
- EC50 (Hepatitis C virus, Huh-7, 72 h): < 1 µM

SMILES: COC(=O)[C@@H](C)NP(=O)(Oc1ccccc1)O[C@@H](C)[C@H]1O[C@@H](n2cnc3c(N)ncnc32)[C@](C)(O)[C@@H]1O (stereo partly drawn) [drawing 364]
- EC50 (Table 9, Huh-7 HCV replicon cells, luciferase, 72 hours): 30 to 200 µM

SMILES: COC(=O)[C@H](C)N[P@](=O)(Oc1ccccc1)O[C@@H](C)[C@H]1O[C@@H](n2cnc3c(N)ncnc32)[C@H](O)[C@@H]1O
- EC50 (Hepatitis C virus, Huh-7, 72 h): < 5 µM

SMILES: COC(=O)Nc1ncnc2c1ncn2[C@@H]1O[C@H]([C@H](C)OP(=O)(N[C@@H](C)C(=O)OC2CCCCC2)Oc2cccc3ccccc23)[C@@H](O)[C@H]1O (stereo partly drawn) [A6, N6-methoxycarbonyl-5′(S)—C-methyladenosine 5′-[1-naphthyl(cyclohexoxy-L-alaninyl)]phosphate]
- EC50 (Hepatitis C virus, Huh-7, 72 h): < 30 µM

SMILES: COC(=O)[C@H](C)NP(=O)(Oc1ccccc1)O[C@@H](C)[C@H]1O[C@@H](n2cnc3c(N)ncnc32)[C@](C)(O)[C@@H]1O (stereo partly drawn)
- EC50 (Hepatitis C virus, Huh-7, 72 h): < 1000 µM

SMILES: Cc1ccc(OP(=O)(N[C@@H](C)C(=O)OC2CCCCC2)O[C@@H](C)[C@H]2O[C@@H](n3cnc4c(N)ncnc43)[C@H](O)[C@@H]2O)cc1 (stereo partly drawn) [A30]
- EC50 (Hepatitis C virus, Huh-7, 72 h): < 1 µM

SMILES: Cc1ccccc1OP(=O)(N[C@@H](C)C(=O)OC1CCCCC1)O[C@@H](C)[C@H]1O[C@@H](n2cnc3c(N)ncnc32)[C@H](O)[C@@H]1O (stereo partly drawn) [A37]
- EC50 (Hepatitis C virus, Huh-7, 72 h): < 1 µM

SMILES: CC(C)OC(=O)[C@H](C)NP(=O)(Oc1cccc2ccccc12)O[C@@H](C)[C@H]1O[C@@H](n2cnc3c(N)ncnc32)[C@@H]2OC(=O)O[C@@H]21 (stereo partly drawn) [A23, 2′,3′-O-carbonyl-5(S)—C-methyladenosine 5′-[1-naphthyl(isopropoxy-L-alaninyl)]phosphate]
- EC50 (Hepatitis C virus, Huh-7, 72 h): < 1 µM

SMILES: C[C@@H](O)[C@H]1O[C@@H](n2cnc3c(N)ncnc32)[C@](C)(O)[C@@H]1O
- EC50 [1]: 5 to 30 µM

Reference: patent US20120070411A1, “SUBSTITUTED NUCLEOTIDE ANALOGS” (Alios BioPharma, Inc., priority 2010, published 2012)
